According to patent US8324390B2, “Tetrazole-substituted anthranilamides as pesticides” (Bayer CropScience AG, priority 2008, dated 2012):
Read-outs that look alike come from different tables or passages of the source.

How the values were obtained:
[1] = system: larvae of the mustard beetle (Phaedon cochleariae); test: Phaedon test (PHAECO spray treatment); details: Phaedon cochleariae, in Brassica rapa, foliar, read-out: effect in % (beetle larvae killed)
[2] = log P determination by HPLC (EEC Directive 79/831 Annex V.A8); format: physicochemical
Method: The measurements were carried out using an Agilent 1100 LC system with a 50*4.6 Zorbax Eclipse C18 1.8 μm column (oven temperature 55° C., flow rate 2.0 ml/min).
The following mobile phases were used:
Mobile phase A: acetonitrile+1000 μl of formic acid/l
Mobile phase B: Millipore water+900 μl of formic acid/l

[3] = system: caterpillars of the armyworm (Spodoptera frugiperda); test: Spodoptera frugiperda test (SPODFR spray treatment); format: in vivo; details: Spodoptera frugiperda, foliar, read-out: effect in % (caterpillars killed)
Excerpt: Solvent: 78.0 parts by weight of acetone

[4] = reversed-phase HPLC, Zorbax Eclipse C18 column, by HPLC according to EEC Directive 79/831 Annex V.A8, read-out: log P
[5] = application rate 100 g/ha, maize leaf discs
[6] = reversed-phase HPLC, Zorbax Eclipse C18 column, determined by HPLC according to EEC Directive 79/831 Annex V.A8, read-out: log P

chromatographic logP [2, 4]	chromatographic logP [2, 6]	SMILES	pest or weed control at 100 g/ha [1] [%]	pest or weed control at 100 g/ha [3, 5] [%]	chromatographic logP ([2]; log P)	pest or weed control at 100 g/ha ([3]; in Zea mays) [%]	chromatographic logP ([2]; by HPLC according to EEC Directive 79/831 Annex V.A8, read-out: log P)
3.43	–	CCNC(=O)c1cc(Cl)cc(C)c1NC(=O)c1cc(Cn2nnc(C(F)(F)F)n2)nn1-c1ncccc1C(F)(F)F [Example 237]	≥ 80	≥ 80	–	–	–
–	–	O=C(NC1CCC1)c1cc(Cl)cc(Cl)c1NC(=O)c1cc(Cn2nnc(C(F)F)n2)nn1-c1ncccc1Cl [Example 291]	≥ 80	–	3.06	≥ 80	–
–	2.94	CNC(=O)c1cc(Cl)cc(C)c1NC(=O)c1cc(Cn2nnnc2C(F)(F)F)nn1-c1ccccc1F [Example 474]	≥ 80	≥ 80	–	–	–
–	–	CNC(=O)c1cc(Cl)cc(Cl)c1NC(=O)c1cc(Cn2nnc(C(F)(C(F)(F)F)C(F)(F)F)n2)nn1-c1ncccc1Cl [Example 386]	≥ 80	–	3.65	≥ 80	–
4.42	–	CC(NC(=O)c1cc(Cl)cc(Cl)c1NC(=O)c1cc(Cn2nnc(C(F)(C(F)(F)F)C(F)(F)F)n2)nn1-c1ncccc1Cl)C1CC1 (stereo not drawn) [Example 387]	≥ 80	≥ 80	–	–	–
–	–	CCNC(=O)c1cc(Cl)cc(Cl)c1NC(=O)c1cc(Cn2nnc(C(F)(F)F)n2)nn1-c1ncccc1Cl [Example 58]	≥ 80	–	3.17	≥ 80	–
–	–	Cc1cc(C#N)cc(C(=O)NC(C)C)c1NC(=O)c1cc(Cn2nnc(C(F)(F)C(F)(F)F)n2)nn1-c1ncccc1Cl [Example 135]	≥ 80	–	3.55	≥ 80	–
–	–	CCNC(=O)c1cc(Cl)cc(C)c1NC(=O)c1cc(Cn2nnc(C(F)(F)C(F)(F)F)n2)nn1-c1ncccc1Cl [Example 128]	≥ 80	–	3.65	≥ 80	–
–	–	Cc1cc(I)cc(C(=O)NC(C)C)c1NC(=O)c1cc(Cn2nnc(C(F)(F)C(F)(F)C(F)(F)F)n2)nn1-c1ncccc1Cl [Example 109]	≥ 80	–	–	≥ 80	4.48
–	–	Cc1cc(I)cc(C(=O)NCC2CC2)c1NC(=O)c1cc(Cn2nnc(C(F)(F)F)n2)nn1-c1ncccc1Cl [Example 73]	≥ 80	–	3.78	≥ 80	–
–	–	Cc1cc(Cl)cc(C(=O)NCC(C)C)c1NC(=O)c1cc(Cn2nnc(C(F)(F)F)n2)nn1-c1ncccc1Cl [Example 37]	≥ 80	–	3.78	≥ 80	–
–	–	C#CCNC(=O)c1cc(C#N)cc(C)c1NC(=O)c1cc(Cn2nnnc2C(F)(F)F)nn1-c1ncccc1Cl [Example 187]	≥ 80	–	2.48	≥ 80	–
2.72	–	Cc1cc(Cl)cc(C(=O)NCC#N)c1NC(=O)c1cc(Cn2nnc(C(F)(F)F)n2)nn1-c1ncccc1Br [Example 325]	≥ 80	≥ 80	–	–	–
–	–	Cc1cc(C#N)cc(C(=O)NC(C2CC2)C2CC2)c1NC(=O)c1cc(Cn2nnc(C(F)(F)F)n2)nn1-c1ncccc1Cl [Example 87]	≥ 80	–	3.65	≥ 80	–
4.56	–	Cc1cc(Cl)cc(C(=O)NC(C)(C)C)c1NC(=O)c1cc(Cn2nnc(C(F)(C(F)(F)F)C(F)(F)F)n2)nn1-c1ncccc1Cl [Example 362]	≥ 80	≥ 80	–	–	–
–	–	Cc1cc(Br)cc(C(=O)NC(C)C)c1NC(=O)c1cc(Cn2nnc(C(F)(F)F)n2)nn1-c1ncccc1Cl [Example 39]	≥ 80	–	3.57	≥ 80	–

chromatographic logP [2, 4]	chromatographic logP [2, 6]	SMILES	pest or weed control at 100 g/ha [1] [%]	pest or weed control at 100 g/ha [3, 5] [%]	chromatographic logP ([2]; log P)	pest or weed control at 100 g/ha ([3]; in Zea mays) [%]	chromatographic logP ([2]; by HPLC according to EEC Directive 79/831 Annex V.A8, read-out: log P)
–	–	O=C(NC1CC1)c1cc(Cl)cc(Cl)c1NC(=O)c1cc(Cn2nnnc2C(F)(F)C(F)(F)F)nn1-c1ncccc1Cl [Example 204]	≥ 80	–	3.24	≥ 80	–
–	–	CNC(=O)c1cc(Cl)cc(Cl)c1NC(=O)c1cc(Cn2nnnc2C(F)(F)F)nn1-c1ncccc1Cl [Example 184]	≥ 80	–	2.63	≥ 80	–
–	–	CC(C)(C)NC(=O)c1cc(Cl)cc(Cl)c1NC(=O)c1cc(Cn2nnnc2C(F)(F)C(F)(F)F)nn1-c1ncccc1Cl [Example 206]	≥ 80	–	3.88	≥ 80	–
–	–	Cc1cc(C#N)cc(C(=O)NC2CCCCC2)c1NC(=O)c1cc(Cn2nnc(C(F)(F)F)n2)nn1-c1ncccc1Cl [Example 400]	≥ 80	–	3.63	≥ 80	–
–	–	Cc1cc(C#N)cc(C(=O)NC(C)C2CC2)c1NC(=O)c1cc(Cn2nnnc2C(F)(F)F)nn1-c1ncccc1Cl (stereo not drawn) [Example 185]	≥ 80	–	3	≥ 80	–
–	3.84	Cc1cc(C#N)cc(C(=O)NC2CCCC2)c1NC(=O)c1cc(Cn2nnc(C(F)(F)F)n2)nn1-c1ccccc1Cl [Example 401]	≥ 80	≥ 80	–	–	–
–	3.2	Cc1cc(C#N)cc(C(=O)NCC(F)(F)F)c1NC(=O)c1cc(Cn2nnnc2C(F)(F)F)nn1-c1ccccc1Cl [Example 538]	≥ 80	≥ 80	–	–	–
–	–	CNC(=O)c1cc(Br)cc(C)c1NC(=O)c1cc(Cn2nnc(C(F)(F)F)n2)nn1-c1ncccc1Cl [Example 28]	≥ 80	–	3.05	≥ 80	–
–	–	Cc1cc(Br)cc(C(=O)NC(C)C)c1NC(=O)c1cc(Cn2nnc(C(F)(F)C(F)(F)F)n2)nn1-c1ncccc1Cl [Example 146]	≥ 80	–	3.95	≥ 80	–
3.59	–	Cc1cc(C#N)cc(C(=O)NC(C)(C)C)c1NC(=O)c1cc(Cn2nnc(C(F)(F)F)n2)nn1-c1ncccc1C(F)(F)F [Example 232]	≥ 80	≥ 80	–	–	–
–	–	N#CCNC(=O)c1cc(Cl)cc(Cl)c1NC(=O)c1cc(Cn2nnc(C(F)(C(F)(F)F)C(F)(F)F)n2)nn1-c1ncccc1Cl [Example 393]	≥ 80	–	3.59	≥ 80	–
4.51	–	Cc1cc(I)cc(C(=O)NCC2CC2)c1NC(=O)c1cc(Cn2nnc(C(F)(C(F)(F)F)C(F)(F)F)n2)nn1-c1ncccc1Cl [Example 383]	≥ 80	≥ 80	–	–	–
–	–	Cc1cc(Cl)cc(C(=O)NC(C)C2CC2)c1NC(=O)c1cc(Cn2nnc(C(F)F)n2)nn1-c1ncccc1Cl (stereo not drawn) [Example 256]	≥ 80	–	3.24	≥ 80	–
–	–	C=CCNC(=O)c1cc(Cl)cc(C)c1NC(=O)c1cc(Cn2nnc(C(F)(F)F)n2)nn1-c1ncccc1Cl [Example 319]	≥ 80	–	3.34	≥ 80	–
3.32	–	CNC(=O)c1cc(Cl)cc(C)c1NC(=O)c1cc(Cn2nnc(C(F)(F)F)n2)nn1-c1ccccc1F [Example 311]	≥ 80	≥ 80	–	–	–
